Measured values: ChEMBL document CHEMBL2413072, “Synthesis and in vitro anticancer studies of novel C-2 arylidene congeners of lantadenes” (2013)

Tests used:
Assay type in all cases: functional
[1] = Growth inhibition of human HCC2998 cells by sulforhodamine B assay
NCI-H522 = assay: Growth inhibition of human NCI-H522 cells by sulforhodamine B assay
NCI-H23 = assay: Growth inhibition of human NCI-H23 cells by sulforhodamine B assay
HOP-62 = assay: Growth inhibition of human HOP62 cells by sulforhodamine B assay
UACC-62 = assay: Growth inhibition of human UACC62 cells assessed as cell growth at 10^-8 M by sulforhodamine B assay; settings: read-out: Activity
MDA-MB-435 = assay: Growth inhibition of human MDA-MB-435 cells assessed as cell growth at 10^-8 M by sulforhodamine B assay; settings: read-out: Activity
SNB-75 = assay: Growth inhibition of human SNB75 cells assessed as cell growth at 10^-8 M by sulforhodamine B assay; settings: read-out: Activity
BT-549 = assay: Growth inhibition of human BT549 cells by sulforhodamine B assay
PC-3 = assay: Growth inhibition of human PC3 cells by sulforhodamine B assay
RXF 393 = assay: Growth inhibition of human RXF393 cells by sulforhodamine B assay
A498 = assay: Growth inhibition of human A498 cells by sulforhodamine B assay
[2] = read-out: LC50 (the source's name)
[3] = read-out: pLC50 (the source's name) (converted)

CC(C)=CC(=O)O[C@@H]1CC(C)(C)C[C@H]2C3=CC[C@@H]4[C@@]5(C)CC[C@H](O)C(C)(C)[C@@H]5CC[C@@]4(C)[C@]3(C)CC[C@@]12C(=O)O [Reduced Lantadene B]
GI50 ([1]; HCC 2998, read-out: GI50): 3.72 µM | CC50 ([1]; HCC 2998, read-out: LC50 (the source's name)): 62.9 µM | TGI ([1]; HCC 2998, read-out: TGI): 15.3 µM | GI50 ([1]; HCC 2998, read-out: pGI50 (converted)): 3.72 µM | CC50 ([1]; HCC 2998, read-out: pLC50 (the source's name) (converted)): 63.1 µM | TGI ([1]; HCC 2998, read-out: pTGI (converted)): 15.5 µM | GI50 (NCI-H522; read-out: GI50): 4.22 µM | CC50 (NCI-H522; [2]): 71.3 µM | TGI (NCI-H522; read-out: TGI): 21.8 µM | GI50 (NCI-H522; read-out: pGI50 (converted)): 4.17 µM | CC50 (NCI-H522; [3]): 70.8 µM | TGI (NCI-H522; read-out: pTGI (converted)): 21.9 µM | GI50 (NCI-H23; read-out: GI50): 7.24 µM | CC50 (NCI-H23; [2]): 84 µM | TGI (NCI-H23; read-out: TGI): 26.9 µM | GI50 (NCI-H23; read-out: pGI50 (converted)): 7.24 µM | CC50 (NCI-H23; [3]): 83.2 µM | TGI (NCI-H23; read-out: pTGI (converted)): 26.9 µM | GI50 (HOP-62; read-out: GI50): 7.47 µM | LC50 (concentration killing 50% of cells) (HOP-62; read-out: LC50): 79.8 µM | TGI (HOP-62; read-out: TGI): 26.6 µM | GI50 (HOP-62; read-out: pGI50 (converted)): 7.41 µM | LC50 (concentration killing 50% of cells) (HOP-62; read-out: pLC50 (converted)): 79.4 µM | TGI (HOP-62; read-out: pTGI (converted)): 26.3 µM | growth at 0.01 µM (UACC-62): 94% | growth at 0.01 µM (MDA-MB-435): 100% | growth at 0.01 µM (SNB-75): 85% | GI50 (BT-549; read-out: GI50): 6.61 µM | CC50 (BT-549; [2]): 72.1 µM | TGI (BT-549; read-out: TGI): 24.2 µM | GI50 (BT-549; read-out: pGI50 (converted)): 6.61 µM | CC50 (BT-549; [3]): 72.4 µM | TGI (BT-549; read-out: pTGI (converted)): 24 µM | GI50 (PC-3; read-out: GI50): 3.6 µM | CC50 (PC-3; [2]): 64 µM | TGI (PC-3; read-out: TGI): 21.9 µM | GI50 (PC-3; read-out: pGI50 (converted)): 3.63 µM | CC50 (PC-3; [3]): 64.6 µM | TGI (PC-3; read-out: pTGI (converted)): 21.9 µM | GI50 (RXF 393; read-out: GI50): 2.58 µM | CC50 (RXF 393; [2]): 35.6 µM | TGI (RXF 393; read-out: TGI): 7.69 µM | GI50 (RXF 393; read-out: pGI50 (converted)): 2.57 µM | CC50 (RXF 393; [3]): 35.5 µM | TGI (RXF 393; read-out: pTGI (converted)): 7.76 µM | GI50 (A498; read-out: GI50): 2.83 µM | CC50 (A498; [2]): 41.3 µM | TGI (A498; read-out: TGI): 13.7 µM
